Test results taken from US20240239801A1, “PYRIMIDO[5,4,D]PYRIMIDINE COMPOUNDS, COMPOSITIONS COMPRISING THEM AND USES THEREOF” (Université de Montréal, priority 2021, published 2024).
Where two headings read alike, the source gives them in different places.

Assays:
CRAF = CRAF (Homo sapiens, UniProt P04049); experiment: CRAF kinase activity assay (ADP-Glo); assay type: biochemical
Procedure: (§1) Compound preparation: solid samples of each substances in 1dram vials were suspended in DMSO (Fisher Scientific) at a stock concentration of 20 mM. Stocks were kept at −20° C. and protected from light. If solubility of the compound at 20 mM appeared to be an issue, the initial concentration of the DMSO stock was changed to 10 mM or 5 mM.
(§2) In vitro enzymatic reactions were used for evaluating compounds intrinsic activity against BRAF, CRAF and ARAF. For BRAF and CRAF, 0.375 nM of purified GST-tagged kinases (cat #B4062-10UG and cat #R1656-10UG respectively from Millipore Sigma) were incubated with 75 nM of kinase-dead MEK1 substrate (cat #40075; BPS Bioscience) in the presence of 10 μM of Ultrapure ATP (cat #V9102; Promega; part V915A) with and without the test compound in a buffer containing 50 mM HEPES pH 7.5, 10 mM MgCl2, 1 mM EDTA, 0.01% Brij-35 and 2 mM DTT. Separate reactions were performed with the MEK1 substrate and ATP as a blank control. ARAF, kinase reactions were rigorously the same with the exception that kinase concentration was raised to 3.75 nM (cat #1768-0000-1; Reaction Biology).
(§3) For compound treatment, 5 μL/well of test substance solution are placed in a 384-well proxyplate (Perkin Elmer) and mixed with 2× concentrated kinase reactions. The dilution series is selected so that nine concentrations cover a range from 100 nM to 0.01 nM. […] The final concentration of DMSO in the assay is set at 0.05%.
(§4) BRAF and CRAF kinase reactions were carried out for a total of 2 hours at 30° C. and then stopped by ½ dilution in ADP-Glo Reagent (cat #V9102; Promega; part V912C). Reactions were then incubated for 1 h at room temperature before addition of one volume of Kinase Detection Reagent (cat #V9102; Promega; part V917A). Plates were then equilibrated at room temperature for 30 minutes before detection of luminescence on a Synergy Neo2 plate reader (Biotek). The effect of each compound dilution on BRAF and CRAF kinase activity was expressed as % inhibition and calculated as follows. First, the internal 100% inhibition control (average of luminescence in kinase reactions comprising kinase dead MEK1 substrate alone) was subtracted from each data point. The average of DMSO (vehicle) controls (set as 0% inhibition) was established and used to calculate % inhibition:
(§5) IC50 values were obtained by plotting the kinase inhibition values and fitting the dose-activity curves using a log(agonist) versus response−variable slope (four parameters) function using either GraphPadPrism (V7.0) or Dotmatics Screening Ultra platform. Standards included in the ARAF kinase assay were Belvarafenib (MedChem Express cat #HY-109080; CAS #1446113-23-0), LXH254 (MedChem Express cat #HY-112089; CAS #1800398-38-2) and BGB283 (cat #HY-18957; CAS #1446090-79-4).

SW480 pERK = experiment: Phospho-ERK inhibition, AlphaLISA SureFire Ultra p-ERK 1/2; assay type: cell-based, human; conditions: for IC50: 1 h treatment; for SW480 (Ymin %): lowest value of the pERK IC50 curve
Method in brief: (§6)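 Cells plated in RPMI-1640 with 5% FBS, held overnight, then exposed 1 h to ten-point compound dilutions (top 30 or 10 μM down to 0.33 nM; 0.5% DMSO). Lysates read for p-ERK1/2 (Thr202/Tyr204) by AlphaLISA; % inhibition relative to DMSO after subtracting a 1 μM trametinib background; IC50 from four-parameter fit.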

HCT116 pERK = experiment: as above; assay type: cell-based, human; conditions: for IC50: 1 h treatment; for HCT116 (Ymin %): lowest value of the pERK IC50 curve
Method in brief: as §6

BRAF = molecular target: T1, BRAF (Homo sapiens, UniProt P15056); experiment: BRAF kinase activity assay (ADP-Glo); assay type: biochemical
T1 construct: GST; purchased Millipore Sigma B4062-10UG
T1 sequence (P15056 whole entry): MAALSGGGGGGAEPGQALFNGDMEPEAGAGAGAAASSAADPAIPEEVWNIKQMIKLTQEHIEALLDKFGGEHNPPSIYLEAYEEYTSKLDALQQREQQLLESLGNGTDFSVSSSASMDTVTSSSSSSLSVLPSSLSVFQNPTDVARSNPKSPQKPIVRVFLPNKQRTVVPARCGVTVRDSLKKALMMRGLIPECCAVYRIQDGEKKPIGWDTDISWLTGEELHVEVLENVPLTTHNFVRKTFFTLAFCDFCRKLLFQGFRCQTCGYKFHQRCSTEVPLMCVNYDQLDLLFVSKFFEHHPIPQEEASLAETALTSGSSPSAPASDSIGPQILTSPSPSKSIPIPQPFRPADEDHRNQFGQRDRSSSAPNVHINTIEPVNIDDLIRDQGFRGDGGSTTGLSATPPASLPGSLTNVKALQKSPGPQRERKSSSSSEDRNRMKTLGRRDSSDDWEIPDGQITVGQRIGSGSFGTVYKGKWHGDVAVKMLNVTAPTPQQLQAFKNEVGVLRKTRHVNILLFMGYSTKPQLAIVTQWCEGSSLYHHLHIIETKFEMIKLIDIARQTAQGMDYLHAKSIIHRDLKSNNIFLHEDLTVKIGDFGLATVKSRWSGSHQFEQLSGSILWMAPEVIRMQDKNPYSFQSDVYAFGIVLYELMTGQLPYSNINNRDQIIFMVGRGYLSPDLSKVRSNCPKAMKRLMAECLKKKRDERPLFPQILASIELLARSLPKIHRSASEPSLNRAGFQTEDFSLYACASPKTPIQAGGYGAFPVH
Procedure: as §1, §2, §3, §4, §5

ARAF = molecular target: T2, ARAF (Homo sapiens, UniProt P10398); experiment: ARAF kinase activity assay (AlphaLISA p-MEK detection); assay type: biochemical; conditions: Table A
T2 sequence (P10398 310-570 limits assumed): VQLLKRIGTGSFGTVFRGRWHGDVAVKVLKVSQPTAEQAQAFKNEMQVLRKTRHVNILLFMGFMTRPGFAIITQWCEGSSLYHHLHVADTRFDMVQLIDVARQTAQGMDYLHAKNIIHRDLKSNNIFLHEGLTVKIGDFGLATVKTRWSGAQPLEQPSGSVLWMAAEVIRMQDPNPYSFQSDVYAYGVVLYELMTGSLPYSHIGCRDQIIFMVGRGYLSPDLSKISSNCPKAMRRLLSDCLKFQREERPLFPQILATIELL
Procedure: as §1, §2, §3
ARAF kinase reactions were carried out for a total of 2 hours at 30° C. and then stopped by addition of EDTA at a final concentration of 40 mM. Reactions were then detected using the AlphaLISA® SureFire® Ultra™ p-MEK ½ (Ser218/222) (PerkinElmer) kit. Reactions were performed with 5 μL of kinase reaction according to the manufacturer's specifications in 384-well proxyplates (Perkin Elmer) followed by overnight incubation of the reactions at room temperature in a humidified chamber. After completion of the detection reactions, the signals were recorded on a Synergy Neo2 plate reader (Biotek) equipped with AlphaLISA® filters. The effect of each compound dilution on the pMEK signal generated by ARAF reactions was expressed in % inhibition and calculated as follows. An internal 100% inhibition control (average of luminescence in kinase reactions comprising kinase dead MEK1 substrate alone) was included in each plate to measure of pMEK background and was subtracted from each data point. The average of DMSO (vehicle) controls (set as 0% inhibition) was also established and used to calculate % inhibition:
as §5

[1] = Table 3, read-out: SW480 PERK IC50

Sequence of CRAF (P04049 whole entry): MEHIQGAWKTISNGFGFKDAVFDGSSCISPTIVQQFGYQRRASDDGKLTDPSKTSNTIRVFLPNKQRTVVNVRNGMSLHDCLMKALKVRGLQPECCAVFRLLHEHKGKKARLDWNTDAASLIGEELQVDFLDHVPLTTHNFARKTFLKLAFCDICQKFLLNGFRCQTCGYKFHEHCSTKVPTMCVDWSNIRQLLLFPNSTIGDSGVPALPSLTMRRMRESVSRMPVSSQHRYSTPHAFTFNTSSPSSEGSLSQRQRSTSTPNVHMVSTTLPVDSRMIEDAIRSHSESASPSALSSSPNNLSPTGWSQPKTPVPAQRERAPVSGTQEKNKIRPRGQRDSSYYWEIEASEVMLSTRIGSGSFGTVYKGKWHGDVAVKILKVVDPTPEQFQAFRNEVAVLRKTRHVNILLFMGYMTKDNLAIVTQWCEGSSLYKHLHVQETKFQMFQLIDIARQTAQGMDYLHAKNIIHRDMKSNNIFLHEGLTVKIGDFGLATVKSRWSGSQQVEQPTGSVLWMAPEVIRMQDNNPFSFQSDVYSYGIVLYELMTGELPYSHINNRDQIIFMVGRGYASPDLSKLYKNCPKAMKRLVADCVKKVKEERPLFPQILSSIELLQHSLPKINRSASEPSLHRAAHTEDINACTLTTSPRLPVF

SMILES | IC50 (CRAF; Table 3) [nM] | IC50 (HCT116 pERK; Table 3) [nM] | IC50 (BRAF; Table 3) [nM] | HCT116 (Ymin %) (HCT116 pERK; Table 3) [%] | other results
COc1ccc(S(=O)(=O)Nc2ccc(F)c(Nc3ncnc4cnc(SC)nc34)c2F)cc1 [Example 1] |  |  |  |  | IC50 (CRAF; Table 2): > 50 nM; IC50 (SW480 pERK; Homo sapiens, SW480, Table 2, read-out: SW480 PERK IC50 (UM)): 1000 to 10000 nM; SW480 (Ymin %) (SW480 pERK; Table 2): 6%; IC50 (HCT116 pERK; Homo sapiens, HCT-116, Table 2): 10000 to 30000 nM; IC50 (BRAF; Table 2): > 10 nM
Cc1ncn(-c2ncc3ncnc(Nc4c(F)ccc(NS(=O)(=O)c5ccc(Cl)cc5Cl)c4F)c3n2)c1C [Example 62] | 10 to 50 | 1000 to 10000 | 1 to 10 | 11 | IC50 (SW480 pERK; [1]): 500 to 1000 nM; SW480 (Ymin %) (SW480 pERK; Table 3): 2%
COc1ccc(S(=O)(=O)Nc2ccc(F)c(Nc3ncnc4cnc(N5CC[C@H](F)C5)nc34)c2F)c(C)c1 [Example 57] | > 50 | 1000 to 10000 | > 10 | −2 | IC50 (SW480 pERK; [1]): 1000 to 10000 nM; SW480 (Ymin %) (SW480 pERK; Table 3): −2%
O=C1CCc2c(Oc3ccc4c(c3)[C@@H]3[C@H](O4)[C@H]3c3nc4ccc(C(F)(F)F)cc4[nH]3)ccnc2N1 [BGB283, reference compound] |  |  |  |  | IC50 (ARAF): > 20 nM
COc1ccc(S(=O)(=O)Nc2ccc(F)c(Nc3ncnc4c(N)nc(-n5cnc6ccccc65)nc34)c2F)c(C)c1 [Example 88] |  |  |  |  | IC50 (CRAF; Table 4): > 50 nM; IC50 (SW480 pERK; Homo sapiens, SW480, Table 4, read-out: SW480 PERK IC50): 1000 to 10000 nM; SW480 (Ymin %) (SW480 pERK; Table 4): 2%; IC50 (HCT116 pERK; Homo sapiens, HCT-116, Table 4): 1000 to 10000 nM; IC50 (BRAF; Table 4): > 10 nM
COc1ccc(S(=O)(=O)Nc2ccc(F)c(Nc3ncnc4cnc(SC)nc34)c2F)c(C)c1F [Example 91] |  |  |  |  | IC50 (CRAF; Table 2): 10 to 50 nM; IC50 (HCT116 pERK; Table 2): 1000 to 10000 nM; HCT116 (Ymin %) (HCT116 pERK; Table 2): −8%; IC50 (BRAF; Table 2): > 10 nM
Cc1c(F)cccc1S(=O)(=O)Nc1ccc(F)c(Nc2ncnc3cnc(-n4cc(C(=O)N5CCC(O)CC5)c5ccccc54)nc23)c1F [Example 102] | < 10 | 500 to 1000 | < 1 | −9.5 | 
Cc1c(F)cccc1S(=O)(=O)Nc1ccc(F)c(Nc2ncnc3cnc(-n4cc(S(=O)(=O)N(C)Cc5ccncc5)c5ccccc54)nc23)c1F [Example 113] | 10 to 50 | 500 to 1000 | 1 to 10 | −7.0 | 
COCCOc1cccc2c1nnn2-c1ncc2ncnc(Nc3c(F)ccc(NS(=O)(=O)c4cccc(Cl)c4Cl)c3F)c2n1 [Example 137] | < 10 |  | 1 to 10 |  | IC50 (HCT116 pERK; Homo sapiens, HCT-116, Table 3): < 500 nM
CCC1(O)CCN(c2cccc3c2ncn3-c2ncc3ncnc(Nc4c(F)ccc(NS(=O)(=O)c5cccc(C)c5Cl)c4F)c3n2)CC1 [Example 153] | 10 to 50 | < 500 | 1 to 10 | −6 | 
O=S(=O)(Nc1ccc(F)c(Nc2ncnc3cnc(-n4cnc5c(N6CCN(CCO)CC6)cccc54)nc23)c1F)c1cccc(Cl)c1Cl [Example 146] | < 10 | < 500 | < 1 | −9 | 
O=S(=O)(Nc1ccc(F)c(Nc2ncnc3cnc(-n4nnc5c(N6CCN(CCO)CC6)cccc54)nc23)c1F)c1cccc(Cl)c1Cl [Example 139] | < 10 | < 500 | < 1 | 2 | 

Second part, led by results:

IC50 (CRAF; Table 3) [nM] | IC50 (HCT116 pERK; Table 3) [nM] | IC50 (BRAF; Table 3) [nM] | SMILES | HCT116 (Ymin %) (HCT116 pERK; Table 3) [%] | other results
< 10 | < 500 | 1 to 10 | Cc1c(F)cccc1S(=O)(=O)Nc1ccc(F)c(Nc2ncnc3cnc(-n4cnc5c(N)cccc54)nc23)c1F [Example 82] | −10 | IC50 (SW480 pERK; [1]): < 500 nM; SW480 (Ymin %) (SW480 pERK; Table 3): 3.2%
< 10 |  | < 1 | O=S(=O)(Nc1ccc(F)c(Nc2ncnc3cnc(-n4cnc5ccccc54)nc23)c1F)c1cccc(Cl)c1Cl [Example 81] |  | IC50 (SW480 pERK; Homo sapiens, SW480, Table 3, read-out: SW480 PERK IC50): < 500 nM; SW480 (Ymin %) (SW480 pERK; Table 3): 3%; IC50 (HCT116 pERK; Homo sapiens, HCT-116, Table 3): < 500 nM
< 10 | 1000 to 10000 | 1 to 10 | O=S(=O)(Nc1ccc(F)c(Nc2ncnc3cnc(-n4cnc5ccccc54)nc23)c1F)c1ccc(Cl)cc1Cl [Example 63] | −2 | IC50 (SW480 pERK; [1]): 1000 to 10000 nM; SW480 (Ymin %) (SW480 pERK; Table 3): 1%
< 10 | 1000 to 10000 | 1 to 10 | Cc1c(F)cccc1S(=O)(=O)Nc1ccc(F)c(Nc2ncnc3cnc(-n4nnc5ccccc54)nc23)c1F [Example 121] | −4 | 
10 to 50 | < 500 | < 1 | Cc1c(F)cccc1S(=O)(=O)Nc1ccc(F)c(Nc2ncnc3cnc(-n4cc(C(=O)N5CCOCC5)c5ccccc54)nc23)c1F [Example 100] | 2.2 | 
10 to 50 | 500 to 1000 | < 1 | Cc1c(F)cccc1S(=O)(=O)Nc1ccc(F)c(Nc2ncnc3cnc(-n4nc(C(=O)N(C)CCO)c5ccccc54)nc23)c1F [Example 107] | −5.2 | 
< 10 | < 500 | 1 to 10 | COc1ccc(S(=O)(=O)Nc2ccc(F)c(Nc3ncnc4cnc(-n5cnc6c(N)cccc65)nc34)c2F)c(C)c1F [Example 111] | −8.1 | 
< 10 | < 500 | 1 to 10 | Cc1c(F)cccc1S(=O)(=O)Nc1ccc(F)c(Nc2ncnc3cnc(-n4cnc5ccccc54)nc23)c1F [Example 83] | −10 | IC50 (SW480 pERK; [1]): < 500 nM; SW480 (Ymin %) (SW480 pERK; Table 3): −2%
< 10 | < 500 | < 1 | Cc1c(F)cccc1S(=O)(=O)Nc1ccc(F)c(Nc2ncnc3cnc(-n4cc(C(=O)N(C)CCO)c5ccccc54)nc23)c1F [Example 101] | 3.5 | 
10 to 50 | 1000 to 10000 | 1 to 10 | O=S(=O)(Nc1ccc(F)c(Nc2ncnc3cnc(-n4cnc5ccccc54)nc23)c1F)c1cccc2c1OC(F)(F)O2 [Example 150] | −8 | 
> 50 | < 500 | 1 to 10 | Cc1c(F)cccc1S(=O)(=O)Nc1ccc(F)c(Nc2ncnc3cnc(-n4nc(C(=O)N(C)C)c5ccccc54)nc23)c1F [Example 105] | −8.7 | 
< 10 | < 500 | < 1 | CN(C)C1CCN(c2cccc3c2ncn3-c2ncc3ncnc(Nc4c(F)ccc(NS(=O)(=O)c5cccc(Cl)c5Cl)c4F)c3n2)CC1 [Example 145] | −8 | 
